Test [1] relates to chymotrypsin-like activity of the proteasome. The test can be described thus: Proteasome activity in cell lysates (Suc-LLVY-AMC cleavage). The class given is biochemical. To be noted: cell lysates from leukemia and myeloma cell lines. The protocol:
A) Proteasome activity of MDAY-D2 and JJN3 cellular extracts after two hours of treatment with clioquinol (CQ), CuCl2 (Cu), or an equimolar concentration of CQ and Cu. After treatment, the preferential chymotrypsin-like substrate Suc-LLVY-AMC was added and the rate of free AMC was measured over time with a florescent spectrophotometric plate reader (excitation=380 nm, emission=460 nm). B) Proteasome activity of intact MDAY-D2 and JJN3 cells after two hours of treatment with clioquinol (CQ), CuCl2 (Cu), or an equimolar concentration of CQ and Cu. After treatment, the preferential chymotrypsin-like substrate Suc-LLVY-AMC was added and the rate of free AMC was measured over time with a florescent spectrophotometric plate reader (excitation=380 nm, emission=460 nm). […] The chymotrypsin-like activity of the proteasome was measured by incubating equal amounts of protein with the preferential chymotrypsin-like substrate Suc-LLVY-AMC in assay buffer (50 mM Tris-HCl, pH 7.5, 150 mM NaCl) for two hours. After incubation, […] and the rate of free AMC was measured over time with a florescent spectrophotometric plate reader (excitation=380 nm, emission=460 nm). […] The chymotrypsin-like activity of the proteasome was measured by monitoring the rate of cleavage of the fluorescent substrate Suc-LLVY-AMC.

Test [2] has the same test system. The test can be described thus: Proteasome activity after treatment of intact cell lines. Type of test: cell-based. To be noted: intact leukemia and myeloma cell lines. The protocol:
A) Proteasome activity of MDAY-D2 and JJN3 cellular extracts after two hours of treatment with clioquinol (CQ), CuCl2 (Cu), or an equimolar concentration of CQ and Cu. After treatment, the preferential chymotrypsin-like substrate Suc-LLVY-AMC was added and the rate of free AMC was measured over time with a florescent spectrophotometric plate reader (excitation=380 nm, emission=460 nm). B) Proteasome activity of intact MDAY-D2 and JJN3 cells after two hours of treatment with clioquinol (CQ), CuCl2 (Cu), or an equimolar concentration of CQ and Cu. After treatment, the preferential chymotrypsin-like substrate Suc-LLVY-AMC was added and the rate of free AMC was measured over time with a florescent spectrophotometric plate reader (excitation=380 nm, emission=460 nm). Cellular proteins were extracted from cells with lysis buffer (50 mM HEPES pH 7.5, 150 mM NaCl, 2 mM ATP, and 1% Triton X-100). The chymotrypsin-like activity of the proteasome was measured by incubating equal amounts of protein with the preferential chymotrypsin-like substrate Suc-LLVY-AMC in assay buffer (50 mM Tris-HCl, pH 7.5, 150 mM NaCl) for two hours. After incubation, […] and the rate of free AMC was measured over time with a florescent spectrophotometric plate reader (excitation=380 nm, emission=460 nm). […]

Regarding `[Cl][Cu][Cl]` [copper, CuCl2], the “rate of Suc-LLVY-AMC cleavage” value in test [1] is reported as “inhibited the rate of Suc-LLVY-AMC cleavage”. Besides, the “chymotrypsin-like activity of the proteasome” value in test [2] is “no effect on the function of proteasome”.

The values above are taken from patent publication US20110123617A1, “CLIOQUINOL FOR THE TREATMENT OF HEMATOLOGICAL MALIGNANCIES” (priority 2007, published 2011).
